Results taken from PubChem BioAssay AID256 (DTP/NCI, 2004).
Inconclusive results and toxic doses are left out. How the source made its calls: active means survival T/C of 150% or more; inactive means T/C below 125% in these data.

Tested on: CD2F1 mice, L1210 leukemia ip, survival T/C
Test: NCI In Vivo Anticancer Drug Screen. Data for tumor model L1210 Leukemia (intraperitoneal) in CD2F1 (CDF1) mice
Settings: higher = longer survival
Summary of the method: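 Vehicle-treated tumor-bearing mice served as controls (C) for compound-treated mice (T). Reported figure is T divided by C.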

[1] = endpoint: mean survival time, dose: 100.0 mg/kg/injection, schedule: Q04DX003 (ip), vehicle: saline with Tween-80
[2] = endpoint: mean survival time, dose: 200.0 mg/kg/injection, schedule: Q04DX003 (ip), vehicle: saline with Tween-80
[3] = endpoint: mean survival time, dose: 50.0 mg/kg/injection, schedule: Q04DX002 (ip), vehicle: saline with Tween-80
[4] = endpoint: mean survival time, dose: 100.0 mg/kg/injection, schedule: Q04DX002 (ip), vehicle: saline with Tween-80
[5] = endpoint: mean survival time, dose: 100.0 mg/kg/injection, schedule: Q01DX009 (ip), vehicle: saline with Tween-80
[6] = endpoint: mean survival time, dose: 200.0 mg/kg/injection, schedule: Q01DX009 (ip), vehicle: saline with Tween-80
[7] = endpoint: mean survival time, dose: 400.0 mg/kg/injection, schedule: Q01DX009 (ip), vehicle: saline with Tween-80
[8] = endpoint: mean survival time, dose: 400.0 mg/kg/injection, schedule: Q04DX003 (ip), vehicle: saline with Tween-80

Measured: T/C

C1CCC2C[N-]CCC2C1.C1CCC2C[N-]CCC2C1.C1CCC2C[N-]CCC2C1.C1CCC2C[N-]CCC2C1.[I][Fe][I] (stereo not given)
inactive: [1] 108 % of control | [2] 106 % of control

S=C1SCCS1
inactive: endpoint: mean survival time, dose: 100.0 mg/kg/injection, schedule: Q04DX003 (ip), vehicle: saline sonified 98 % of control | endpoint: mean survival time, dose: 200.0 mg/kg/injection, schedule: Q04DX003 (ip), vehicle: saline sonified 107 % of control | endpoint: mean survival time, dose: 400.0 mg/kg/injection, schedule: Q04DX003 (ip), vehicle: saline sonified 89 % of control

CCN(CC)Cc1cn(C2CC(O)C(CO)O2)c(=O)[nH]c1=O (stereo not given)
inactive: endpoint: mean survival time, dose: 12.5 mg/kg/injection, schedule: Q01DX005 (ip), vehicle: water 100 % of control | endpoint: mean survival time, dose: 25.0 mg/kg/injection, schedule: Q01DX005 (ip), vehicle: water 104 % of control | endpoint: mean survival time, dose: 50.0 mg/kg/injection, schedule: Q01DX005 (ip), vehicle: water 91 % of control | endpoint: mean survival time, dose: 100.0 mg/kg/injection, schedule: Q01DX005 (ip), vehicle: water 100 % of control | endpoint: mean survival time, dose: 200.0 mg/kg/injection, schedule: Q01DX005 (ip), vehicle: water 98 % of control

Nc1ncnc(N)c1NC(=O)c1ccc(-c2ccccc2)cc1
inactive: endpoint: mean survival time, dose: 25.0 mg/kg/injection, schedule: Q04DX003 (ip), vehicle: saline with Tween-80 92 % of control | endpoint: mean survival time, dose: 50.0 mg/kg/injection, schedule: Q04DX003 (ip), vehicle: saline with Tween-80 94 % of control | [1] 103 % of control

O=C1/C(=C/c2ccccc2)C=C(c2ccccc2)N1Cc1ccccc1
inactive: endpoint: mean survival time, dose: 25.0 mg/kg/injection, schedule: Q04DX002 (ip), vehicle: saline with Tween-80 103 % of control | [3] 100 % of control | [4] 100 % of control

O=C(NCCNC(=O)Nc1ccc(Cl)cc1)Nc1ccc(Cl)cc1
inactive: [5] 105 % of control | [1] 88 % of control | [6] 107 % of control | [2] 90 % of control | [7] 96 % of control | [8] 88 % of control

O=[N+]([O-])CC(OCCO)C(Cl)(Cl)Cl (stereo not given)
inactive: endpoint: mean survival time, dose: 6.25 mg/kg/injection, schedule: Q01DX009 (ip), vehicle: acetone 97 % of control | endpoint: mean survival time, dose: 12.5 mg/kg/injection, schedule: Q01DX009 (ip), vehicle: acetone 102 % of control | endpoint: mean survival time, dose: 12.5 mg/kg/injection, schedule: Q04DX003 (ip), vehicle: acetone 90 % of control | endpoint: mean survival time, dose: 25.0 mg/kg/injection, schedule: Q01DX009 (ip), vehicle: acetone 97 % of control | endpoint: mean survival time, dose: 25.0 mg/kg/injection, schedule: Q04DX003 (ip), vehicle: acetone 87 % of control

O=C([O-])[O-].O=[N+]([O-])O.[Co+3].[NH2-].[NH2-].[NH2-].[NH2-]
inactive: [7] 93 % of control | [8] 94 % of control

CCCNC(=O)Nc1ccc(C(=O)OCC(C)C)cc1
inactive: endpoint: mean survival time, dose: 100.0 mg/kg/injection, schedule: Q04DX003 (ip), vehicle: saline 93 % of control | endpoint: mean survival time, dose: 200.0 mg/kg/injection, schedule: Q04DX003 (ip), vehicle: saline 95 % of control | endpoint: mean survival time, dose: 400.0 mg/kg/injection, schedule: Q04DX003 (ip), vehicle: saline 104 % of control

CC1=C/C(=N/NC(N)=O)CC(C)C1 (stereo not given)
inactive: [5] 91 % of control | [6] 97 % of control | [7] 98 % of control

CCOC(=O)N1N(C(=O)c2ccccc2)C(=O)CC1(C)C
inactive: endpoint: mean survival time, dose: 100.0 mg/kg/injection, schedule: Q01DX001 (ip), vehicle: other 95 % of control | endpoint: mean survival time, dose: 200.0 mg/kg/injection, schedule: Q01DX001 (ip), vehicle: other 116 % of control | endpoint: mean survival time, dose: 400.0 mg/kg/injection, schedule: Q01DX001 (ip), vehicle: other 98 % of control

[N-]=[N+]=[N-]
inactive: endpoint: median survival time, dose: 0.75 mg/kg/injection, schedule: Q01DX009 (ip), vehicle: saline 101 % of control | endpoint: median survival time, dose: 1.5 mg/kg/injection, schedule: Q01DX009 (ip), vehicle: saline 101 % of control | endpoint: median survival time, dose: 3.0 mg/kg/injection, schedule: Q01DX009 (ip), vehicle: saline 93 % of control | endpoint: median survival time, dose: 6.0 mg/kg/injection, schedule: Q01DX009 (ip), vehicle: saline 103 % of control | endpoint: median survival time, dose: 12.0 mg/kg/injection, schedule: Q01DX009 (ip), vehicle: saline 92 % of control

CC1(C)CCC2(C(=O)O)CCC3(C)C(=CCC4C5(C)CC(O)C(OC6OC(CO)C(O)C(O)C6O)C(C)(CO)C5C(O)CC43C)C2C1 (stereo not given)
inactive: [3] 102 % of control

C/C=C(\C)C(=O)OC1C(C)C2(O)C(C=C(CO)CC3(O)C(=O)C(C)=CC32)C2C(C)(C)C12OC(=O)CCCCCCCCC (stereo not given)
inactive: endpoint: mean survival time, dose: 125.0 micrograms/kg/injection, schedule: Q01DX009 (ip), vehicle: saline + alcohol 90 % of control | endpoint: mean survival time, dose: 250.0 micrograms/kg/injection, schedule: Q01DX009 (ip), vehicle: saline + alcohol 95 % of control

CC(C)(C)OC(=O)CCC(NC(=O)OC(C)(C)C)C(=O)O (stereo not given)
inactive: [1] 98 % of control | [2] 93 % of control | [8] 95 % of control

O=C1Nc2ccccc2C(=O)Nc2ccccc21
inactive: endpoint: mean survival time, dose: 100.0 mg/kg/injection, schedule: Q01DX009 (ip), vehicle: Klucel (hydroxypropylcellulose) (HPC) 93 % of control | endpoint: mean survival time, dose: 200.0 mg/kg/injection, schedule: Q01DX009 (ip), vehicle: Klucel (hydroxypropylcellulose) (HPC) 89 % of control

CCOC(=O)C(CCC#N)(CCC#N)C(=O)O
inactive: endpoint: mean survival time, dose: 100.0 mg/kg/injection, schedule: Q04DX002 (ip), vehicle: saline 98 % of control | endpoint: mean survival time, dose: 200.0 mg/kg/injection, schedule: Q04DX002 (ip), vehicle: saline 111 % of control | endpoint: mean survival time, dose: 400.0 mg/kg/injection, schedule: Q04DX002 (ip), vehicle: saline 117 % of control

CC1OCOC(C)C1C (stereo not given)
inactive: endpoint: mean survival time, dose: 50.0 mg/kg/injection, schedule: Q01DX005 (ip), vehicle: saline 108 % of control | endpoint: mean survival time, dose: 50.0 mg/kg/injection, schedule: Q01DX009 (ip), vehicle: saline with Tween-80 91 % of control | endpoint: mean survival time, dose: 50.0 mg/kg/injection, schedule: Q04DX002 (ip), vehicle: saline + alcohol 103 % of control | endpoint: mean survival time, dose: 100.0 mg/kg/injection, schedule: Q01DX005 (ip), vehicle: saline 108 % of control | [5] 91 % of control | endpoint: mean survival time, dose: 100.0 mg/kg/injection, schedule: Q04DX002 (ip), vehicle: saline + alcohol 95 % of control | endpoint: mean survival time, dose: 200.0 mg/kg/injection, schedule: Q01DX005 (ip), vehicle: saline 108 % of control | [6] 91 % of control | endpoint: mean survival time, dose: 200.0 mg/kg/injection, schedule: Q04DX002 (ip), vehicle: saline + alcohol 88 % of control | endpoint: mean survival time, dose: 400.0 mg/kg/injection, schedule: Q01DX005 (ip), vehicle: saline 102 % of control | [7] 98 % of control | endpoint: mean survival time, dose: 400.0 mg/kg/injection, schedule: Q04DX002 (ip), vehicle: saline + alcohol 95 % of control

CC1CP(c2ccccc2)(c2ccccc2)(c2ccccc2)OC1(C(=O)c1ccccc1)c1ccccc1 (stereo not given)
inactive: endpoint: mean survival time, dose: 25.0 mg/kg/injection, schedule: Q01DX009 (ip), vehicle: saline with Tween-80 89 % of control | [1] 91 % of control

CN(CCSSCCN(C)/N=C/c1ccccc1)/N=C/c1ccccc1
inactive: [1] 97 % of control | [2] 101 % of control | [8] 101 % of control

Cc1cc(S(=O)(=O)O)c(N)cc1Cl
inactive: [5] 106 % of control | [6] 92 % of control | [7] 103 % of control

CCN(CC)C(=O)CSC#N
inactive: endpoint: mean survival time, dose: 12.5 mg/kg/injection, schedule: Q01DX001 (ip), vehicle: Klucel (hydroxypropylcellulose) (HPC) 96 % of control | endpoint: mean survival time, dose: 25.0 mg/kg/injection, schedule: Q01DX001 (ip), vehicle: Klucel (hydroxypropylcellulose) (HPC) 100 % of control

O=C(O)C1Cc2c([nH]c3ccccc23)C2CCC(=O)N12 (stereo not given)
inactive: [4] 100 % of control | endpoint: mean survival time, dose: 200.0 mg/kg/injection, schedule: Q04DX002 (ip), vehicle: saline with Tween-80 108 % of control | endpoint: mean survival time, dose: 400.0 mg/kg/injection, schedule: Q04DX002 (ip), vehicle: saline with Tween-80 100 % of control

O=[n+]1cc2ccccn2cc1-c1ccccc1
inactive: [5] 97 % of control | [1] 104 % of control | [6] 101 % of control | [2] 104 % of control | [7] 101 % of control

O=C(NC(C(=O)O)c1ccccc1)OCc1ccccc1 (stereo not given)
inactive: [1] 102 % of control | [2] 107 % of control | [8] 97 % of control

COc1ccc([I+]c2cccc(Cl)c2)cc1Cl
inactive: endpoint: mean survival time, dose: 0.37 mg/kg/injection, schedule: Q01DX009 (ip), vehicle: saline with Tween-80 97 % of control | endpoint: mean survival time, dose: 0.75 mg/kg/injection, schedule: Q01DX009 (ip), vehicle: saline with Tween-80 107 % of control | endpoint: mean survival time, dose: 1.5 mg/kg/injection, schedule: Q01DX009 (ip), vehicle: saline with Tween-80 98 % of control | endpoint: mean survival time, dose: 3.0 mg/kg/injection, schedule: Q01DX009 (ip), vehicle: saline with Tween-80 110 % of control | endpoint: mean survival time, dose: 6.0 mg/kg/injection, schedule: Q01DX009 (ip), vehicle: saline with Tween-80 107 % of control | endpoint: mean survival time, dose: 12.0 mg/kg/injection, schedule: Q01DX009 (ip), vehicle: saline with Tween-80 109 % of control | endpoint: median survival time, dose: 12.5 mg/kg/injection, schedule: Q01DX009 (ip), vehicle: saline with Tween-80 116 % of control | endpoint: median survival time, dose: 25.0 mg/kg/injection, schedule: Q01DX009 (ip), vehicle: saline with Tween-80 116 % of control
